Assay results: patent publication US8580784B2, “Method for treating a disease related to the glucocorticoid receptor” (Santen Pharmaceutical Co., Ltd., priority 2006, dated 2013)

Molecular target: T1, Recombinant human GR (Homo sapiens, UniProt P04150)
T1 construct: purchased Invitrogen P2816
T1 sequence (P04150 1-777): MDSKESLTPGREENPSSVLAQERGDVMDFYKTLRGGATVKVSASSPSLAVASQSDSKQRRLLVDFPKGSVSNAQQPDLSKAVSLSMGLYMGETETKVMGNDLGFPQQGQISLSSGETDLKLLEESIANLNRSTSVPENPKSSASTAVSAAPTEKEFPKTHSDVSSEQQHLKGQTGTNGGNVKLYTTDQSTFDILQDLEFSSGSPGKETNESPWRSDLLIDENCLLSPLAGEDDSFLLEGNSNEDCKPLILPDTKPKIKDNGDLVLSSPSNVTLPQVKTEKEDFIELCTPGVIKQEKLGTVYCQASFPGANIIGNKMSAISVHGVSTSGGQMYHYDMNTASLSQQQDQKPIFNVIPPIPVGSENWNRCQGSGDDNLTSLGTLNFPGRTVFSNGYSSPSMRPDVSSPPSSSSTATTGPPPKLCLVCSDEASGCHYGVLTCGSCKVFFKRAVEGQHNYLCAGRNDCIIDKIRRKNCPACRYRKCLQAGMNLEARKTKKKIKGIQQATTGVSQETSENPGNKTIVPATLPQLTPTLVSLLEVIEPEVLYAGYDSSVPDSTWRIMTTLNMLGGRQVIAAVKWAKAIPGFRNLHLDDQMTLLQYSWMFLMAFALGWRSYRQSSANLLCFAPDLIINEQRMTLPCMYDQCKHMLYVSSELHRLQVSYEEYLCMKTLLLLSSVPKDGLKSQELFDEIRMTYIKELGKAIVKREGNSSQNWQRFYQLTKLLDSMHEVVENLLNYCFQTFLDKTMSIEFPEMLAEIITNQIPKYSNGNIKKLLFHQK
Test: Evaluation test for binding activity to glucocorticoid receptor: receptor competitor assay by fluorescence polarization (Invitrogen GR competitor assay kit, cat No. P2816)
Details: 20 μM test compound solution, 10 μL per well plus 5 μL 4×GS1 and 5 μL 4×GR solution; room temperature 2 to 4 hours; a ratio of 100% or more is indicated by 100%
Experimental: A detailed explanation of this matter will be described in the section of “Pharmacological Test” in Examples described below. In order to find the usefulness of the present compound as a pharmaceutical, a glucocorticoid receptor competitor assay was carried out by a fluorescence polarization method by using a glucocorticoid receptor competitor assay kit (manufactured by Invitrogen, cat No. P2816) to study the glucocorticoid receptor binding activity of the present compound.
1. Evaluation Test for Binding Activity to Glucocorticoid Receptor (hereinafter referred to as “GR”)
In order to evaluate a binding activity to GR, a receptor competitor assay was carried out by a fluorescence polarization method. In the assay, a GR competitor assay kit (manufactured by Invitrogen, cat No. P2816) was used, and a procedure was carried out according to the protocol attached to the kit. Hereinafter, the specific method will be described.
(Preparation of Reagents)
GR screening buffer: A buffer containing 10 mM potassium phosphate (pH 7.4), 20 mM sodium molybdate (Na2MoO4), 0.1 mM ethylene diamine tetraacetic acid (EDTA), 5 mM dithiothreitol (DTT), 0.1 mM stabilizing peptide and 2% dimethylsulfoxide was prepared.
4×GS1 solution: Fluormone™ GS1, which is a fluorescent glucocorticoid ligand, was diluted with GR screening buffer, whereby a 4 nM solution was prepared.
4×GR solution: Recombinant human GR was diluted with GR screening buffer, whereby a 16 nM solution was prepared.
(Preparation of Test Compound Solution)
After a test compound was dissolved in dimethylsulfoxide, the resulting solution was diluted with GR screening buffer, whereby a 20 μM test compound solution was prepared.
(Test Method and Measurement Method)
1) The test compound solution was added in an amount of 10 μL into each well of a 384-well plate, and then, 4×GS1 solution and 4×GR solution were added in an amount of 5 μL into each well, respectively.
2) The plate was incubated in a dark place at room temperature for 2 to 4 hours.
3) By using a multimode plate reader, Analyst™ HT (manufactured by LJL Biosystems), fluorescence polarization of each well was measured. As the blank, a well containing GR screening buffer in place of the test compound and 4×GS1 solution was used.
4) The same procedure as that in the above 1) to 3) was carried out except that GR screening buffer was used in place of the test compound solution, and the obtained result was taken as the negative control.
5) The same procedure as that in the above 1) to 3) was carried out except that 2 mM dexamethasone was used in place of the test compound solution, and the obtained result was taken as the positive control.
(Calculation Equation of GR Binding Ratio)
A GR binding ratio (%) was calculated from the following equation. GR binding ratio(%)=100×[1−(fluorescence polarization of test compound solution−fluorescence polarization of positive control solution)/(fluorescence polarization of negative control solution−fluorescence polarization of positive control solution)] (Test Results and Discussion)

## COc1ccccc1NCc1c(-c2ccc(OC(=O)c3sccc3Cl)cc2OC)ccc2c1C(C)=CC(C)(C)N2 [Compound 1-28, 6-[4-(3-Chlorothiophen-2-ylcarbonyloxy)-2-methoxyphenyl]-5-(2-methoxyphenylaminomethyl)-2,2,4-trimethyl-1,2-dihydroquinoline]
  inhibition at 20 µM (stock): 88%

## COc1ccccc1NCc1c(-c2ccc(OC(=O)c3occc3C)cc2OC)ccc2c1C(C)=CC(C)(C)N2 [Compound 1-29, 6-[2-Methoxy-4-(3-methylfuran-2-ylcarbonyloxy)phenyl]-5-(2-methoxyphenylaminomethyl)-2,2,4-trimethyl-1,2-dihydroquinoline]
  inhibition at 20 µM (stock): 93%

## COc1ccccc1NCc1c(-c2ccc(OC(=O)c3cscn3)cc2OC)ccc2c1C(C)=CC(C)(C)N2 [Compound 1-30, 5-(2-Methoxyphenylaminomethyl)-6-[2-methoxy-4-(thiazol-4-ylcarbonyloxy)phenyl]-2,2,4-trimethyl-1,2-dihydroquinoline]
  inhibition at 20 µM (stock): 94%

## COc1ccccc1NCc1c(-c2ccc(OC(=O)c3ccc(C)nc3)cc2OC)ccc2c1C(C)=CC(C)(C)N2 [Compound 1-31, 6-[2-Methoxy-4-(6-methylpyridin-3-ylcarbonyloxy)phenyl]-5-(2-methoxyphenylaminomethyl)-2,2,4-trimethyl-1,2-dihydroquinoline]
  inhibition at 20 µM (stock): 92%

## COc1ccccc1NCc1c(-c2ccc(OC(=O)c3cccnc3OC)cc2OC)ccc2c1C(C)=CC(C)(C)N2 [Compound 1-32, 6-[2-Methoxy-4-(2-methoxypyridin-3-ylcarbonyloxy)phenyl]-5-(2-methoxyphenylaminomethyl)-2,2,4-trimethyl-1,2-dihydroquinoline]
  inhibition at 20 µM (stock): 90%

## COc1cc(OC(=O)c2ccoc2)ccc1-c1ccc2c(c1CNc1cc(F)ccc1C)C(C)=CC(C)(C)N2 [Compound 1-33, 5-(5-Fluoro-2-methylphenylaminomethyl)-6-[4-(furan-3-ylcarbonyloxy)-2-methoxyphenyl]-2,2,4-trimethyl-1,2-dihydroquinoline]
  inhibition at 20 µM (stock): 100%

## COc1cc(OC(=O)c2ccncc2)ccc1-c1ccc2c(c1CNc1cc(F)ccc1C)C(C)=CC(C)(C)N2 [Compound 1-34, 5-(5-Fluoro-2-methylphenylaminomethyl)-6-[2-methoxy-4-(pyridin-4-ylcarbonyloxy)phenyl]-2,2,4-trimethyl-1,2-dihydroquinoline]
  inhibition at 20 µM (stock): 100%

## COc1cc(OC(=O)c2ccccc2F)ccc1-c1ccc2c(c1CNc1cc(F)ccc1C)C(C)=CC(C)(C)N2 [Compound 1-35, 6-[4-(2-Fluorobenzoyloxy)-2-methoxyphenyl]-5-(5-fluoro-2-methylphenylaminomethyl)-2,2,4-trimethyl-1,2-dihydroquinoline]
  inhibition at 20 µM (stock): 100%

## COc1cc(OC(=O)c2cccnc2C)ccc1-c1ccc2c(c1CNc1cc(F)ccc1C)C(C)=CC(C)(C)N2 [Compound 1-38, 5-(5-Fluoro-2-methylphenylaminomethyl)-6-[2-methoxy-4-(2-methylpyridin-3-ylcarbonyloxy)phenyl]-2,2,4-trimethyl-1,2-dihydroquinoline]
  inhibition at 20 µM (stock): 100%

## COc1cc(OC(=O)c2ccccc2SC)ccc1-c1ccc2c(c1CNc1cc(F)ccc1C)C(C)=CC(C)(C)N2 [Compound 1-39, 5-(5-Fluoro-2-methylphenylaminomethyl)-6-[4-(2-methylthiobenzoyloxy)-2-methoxyphenyl]-2,2,4-trimethyl-1,2-dihydroquinoline]
  inhibition at 20 µM (stock): 100%

## COc1cc(OC(=O)c2cccnc2OC)ccc1-c1ccc2c(c1CNc1cc(F)ccc1C)C(C)=CC(C)(C)N2 [Compound 1-41, 5-(5-Fluoro-2-methylphenylaminomethyl)-6-[2-methoxy-4-(2-methoxypyridin-3-ylcarbonyloxy)phenyl]-2,2,4-trimethyl-1,2-dihydroquinoline]
  inhibition at 20 µM (stock): 100%
